From PMC8508980, “Design, Synthesis and Anticancer Profile of New 4-(1H-benzo[d]imidazol-1-yl)pyrimidin-2-amine-Linked Sulfonamide Derivatives with V600EBRAF Inhibitory Effect” (International Journal of Molecular Sciences, 2021)
Like-named read-outs stand apart in the source and are kept apart here.

How the values were obtained:
[1] = biological target: CRAF (Homo sapiens, UniProt P04049); assay: Reaction Biology kinase HotSpot enzyme assay; type: biochemical; details: 1 µM ATP, mean ± S.D. of two separate experiments
Description: (§1) Reaction Biology Corp. Kinase HotSpotTM service http://www.reactionbiology.com was used for screening of compounds IC50 Proﬁler Express for IC50 measurement. Assay protocol: In a ﬁnal reaction volume of 25 μL, kinase (5–10 mU) is incubated with 25 mM Tris pH 7.5, 0.02 mM EGTA, 0.66 mg/mL myelin basic protein, 10 mM magnesium acetate and [γ33P-ATP] (speciﬁc activity approx. 500 cpm/pmol, concentration as required). The reaction is initiated by the addition of the Mg-ATP mix. After incubation for 40 min at room temperature, the reaction is stopped by the addition of 5 μL of a 3% phosphoric acid solution. 10 μL of the reaction is then spotted onto a P30 ﬁltermat, and washed three times for 5 min in 75 mM phosphoric acid and once in methanol prior to drying and scintillation counting.

[2] = biological target: T1, BRAF (wild-type) (Homo sapiens, UniProt P15056); assay: Reaction Biology kinase HotSpot enzyme assay; type: biochemical; details: 1 µM ATP; mean ± S.D. of two separate experiments
T1 construct: purchased Reaction Biology Corp. (Kinase HotSpot service)
Description: The enzymatic assays were performed in Reaction Biology Corp. using the standard protocol at 1 µM ATP and threefold dilution factor (detailed procedure is found in the Supplementary Information page 52 s).
as §1

[3] = biological target: T2, V600EBRAF (Homo sapiens, UniProt P15056, V600E); assay: Reaction Biology kinase HotSpot enzyme assay; type: biochemical; details: 1 µM ATP; for IC50: mean ± S.D. of two separate experiments; for % Inhibition at 1 µM over V600EBRAF / inhibition at 1 µM: single dose 1 µM, mean ± S.D. of two experiments; for inhibition at 1 µM: read-out: % Inhibition at 1 µM over V600EBRAF
T2 construct: purchased Reaction Biology Corp. (Kinase HotSpot service)
Description: Reaction Biology Corp. Kinase HotSpotTM service
as §1, with “Proﬁler” for “Reaction Biology Corp. Kinase HotSpotTM service http://www.reactionbiology.com was used for screening of compounds IC50 Proﬁler”

[4] = test system: OVCAR-4; assay: NCI 60 cell line screen; type: cell-based, human; details: for activity at 10 µM: Homo sapiens, OVCAR-4, Ovarian Cancer, read-out: Percent growth
Description: (§2) Anticancer profiling over a panel of 60 cancer cell lines was carried out at the National Cancer Institute (NCI), Bethesda, Maryland, USA, https://dtp.cancer.gov/discovery_development/nci-60/methodology.htm (Last visit 22 September 2021), using the standard procedure (detailed procedure is located in the Supplementary Information page 50 s).
(§3) NCI standard procedure for 60 cell lines assay
(§4) The human tumor cell lines of the cancer screening panel are grown in RPMI 1640 mediu m containing 5% fetal bovine serum and 2 mM L-glutamine. For a typical screening experiment, cells are inoculated into 96 well microtiter plates in 100 μL at plating densities ranging from 5,000 to 40,000 cells/well depending on the doubling time of individual cell lines. After cell inoculation, the microtiter plates are incubated at 37° C, 5 % CO2, 95 % air and 100 % relative humidity for 24 h prior to addition of experimental drugs.
(§5) After 24 h, two plates of each cell line are fixed in situ with TCA, to represent a measurement of the cell population for each cell line at the time of drug addition (Tz). Experimental drugs are solubilized in dimethyl sulfoxide at 400-fold the desired final maximum test concentration (10 µM) and stored frozen prior to use. At the time of drug addition, an aliquot of frozen concentrate is thawed and diluted to twice the desired final maximum test concentration with co mp lete medium containing 50 μg/ml gentamicin. Additional four, 10-fold or ½ log serial dilutions are made to provide a total of five drug concentrations plus control. Aliquots of 100 μl of these different drug dilutions are added to the appropriate microtiter wells already containing 100 μl of medium, resulting in the required final drug concentrations.
(§6) Following drug addition, the plates are incubated for an additional 48 h at 37°C, 5 % CO2, 95 % air, and 100 % relative humidity. For adherent cells, the assay is terminated by the addition of cold TCA. Cells are fixed in situ by the gentle addition of 50 μl of cold 50 % (w/v) TCA (final concentration, 10 % TCA) and incubated for 60 minutes at 4°C. The supernatant is discarded, and the plates are washed five times with tap water and air dried. Sulforhodamine B (SRB) solution (100 μl) at 0.4 % (w/v) in 1 % acetic acid is added to each well, and plates are incubated for 10 minutes at room temperature. After staining, unbound dye is removed by washing five times with 1 % acetic acid and the plates are air dried. Bound stain is subsequently solubilized with 10 mM trizma base, and the absorbance is read on an automated plate reader at a wavelength of 515 nm. For suspension cells, the methodology is the same except that the assay is terminated by fixing settled cells at the bottom of the wells by g ently adding 50 μl of 80 % TCA (final concentration, 16 % TCA). Using the seven absorbance measurements [time zero, (Tz), control growth, (C), and test growth in the presence of drug at the five concentration levels (Ti)], the percentage growth is calculated at each of the drug concentrations levels. Percentage growth inhibition is calculated as:
(§7) [(Ti-Tz)/(C-Tz)] x 100 for concentrations for which Ti>/=Tz
(§8) [(Ti-Tz)/Tz] x 100 for concentrations for which Ti<Tz.
(§9) Three dose response parameters are calculated for each experimental agent. Growth inhibition of […]
(§10) resulting in a 50% reduction in the net protein increase (as measured by SRB staining) in control cells during the drug incubation. The drug concentration resulting in total growth inhibition […]
(§11) (TGI) is calculated from Ti = Tz.

[5] = test system: U251; assay: NCI 60 cell line screen; type: cell-based, human; details: Homo sapiens, U-251; U251, CNS-Cancer; read-out: Percent growth
Description: as §2, §3, §4, §5, §6, §7, §8, §9, §10, §11

[6] = test system: PC-3; assay: NCI 60 cell line screen; type: cell-based, human; details: Homo sapiens; PC-3, Prostate Cancer; read-out: Percent growth
Description: as §2, §3, §4, §5, §6, §7, §8, §9, §10, §11

[7] = test system: HOP-92; assay: NCI 60 cell line screen; type: cell-based, human; details: for activity at 10 µM: Homo sapiens, HOP-92, Non-Small Cell Lung Cancer, read-out: Percent growth
Description: as §2, §3, §4, §5, §6, §7, §8, §9, §10, §11

[8] = test system: SK-MEL-5; assay: NCI 60 cell line screen; type: cell-based, human; details: for activity at 10 µM: Homo sapiens, SK-MEL-5, Melanoma, read-out: Percent growth; for percent inhibition: SK-MEL-5, NCI-60 heat map analysis
Description: as §2, §3, §4, §5, §6, §7, §8, §9, §10, §11

[9] = test system: MOLT-4; assay: NCI 60 cell line screen; type: cell-based, human; details: for activity at 10 µM: Homo sapiens, MOLT-4, Leukemia, read-out: Percent growth
Description: as §2, §3, §4, §5, §6, §7, §8, §9, §10, §11

[10] = test system: NCI-H522; assay: NCI 60 cell line screen; type: cell-based, human; details: for activity at 10 µM: Homo sapiens, NCI-H522, Non-Small Cell Lung Cancer, read-out: Percent growth
Description: as §2, §3, §4, §5, §6, §7, §8, §9, §10, §11

[11] = test system: EKVX; assay: NCI 60 cell line screen; type: cell-based, human; details: for activity at 10 µM: Homo sapiens, Non-Small Cell Lung Cancer, read-out: Percent growth
Description: as §2, §3, §4, §5, §6, §7, §8, §9, §10, §11

T1 sequence (P15056 whole entry): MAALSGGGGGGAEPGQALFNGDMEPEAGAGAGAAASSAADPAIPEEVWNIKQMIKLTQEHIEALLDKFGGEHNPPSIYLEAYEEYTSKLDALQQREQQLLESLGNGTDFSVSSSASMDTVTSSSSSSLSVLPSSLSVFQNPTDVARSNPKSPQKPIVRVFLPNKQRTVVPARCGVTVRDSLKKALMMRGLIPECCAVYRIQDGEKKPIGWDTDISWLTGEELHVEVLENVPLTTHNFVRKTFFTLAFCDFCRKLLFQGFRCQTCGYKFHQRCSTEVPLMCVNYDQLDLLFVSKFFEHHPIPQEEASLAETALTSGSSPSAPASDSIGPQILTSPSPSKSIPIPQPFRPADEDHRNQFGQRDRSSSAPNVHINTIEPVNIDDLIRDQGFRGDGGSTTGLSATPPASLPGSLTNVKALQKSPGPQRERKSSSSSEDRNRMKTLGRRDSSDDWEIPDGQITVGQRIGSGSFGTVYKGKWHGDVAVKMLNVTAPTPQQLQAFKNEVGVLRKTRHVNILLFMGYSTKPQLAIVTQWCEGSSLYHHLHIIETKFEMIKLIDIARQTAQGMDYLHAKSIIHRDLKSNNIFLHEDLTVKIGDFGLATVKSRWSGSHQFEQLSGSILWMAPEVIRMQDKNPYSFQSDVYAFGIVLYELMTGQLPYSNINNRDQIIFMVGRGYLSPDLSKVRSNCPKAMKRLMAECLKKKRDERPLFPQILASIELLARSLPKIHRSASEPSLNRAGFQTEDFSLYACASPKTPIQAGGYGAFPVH
Sequence of CRAF (P04049 whole entry): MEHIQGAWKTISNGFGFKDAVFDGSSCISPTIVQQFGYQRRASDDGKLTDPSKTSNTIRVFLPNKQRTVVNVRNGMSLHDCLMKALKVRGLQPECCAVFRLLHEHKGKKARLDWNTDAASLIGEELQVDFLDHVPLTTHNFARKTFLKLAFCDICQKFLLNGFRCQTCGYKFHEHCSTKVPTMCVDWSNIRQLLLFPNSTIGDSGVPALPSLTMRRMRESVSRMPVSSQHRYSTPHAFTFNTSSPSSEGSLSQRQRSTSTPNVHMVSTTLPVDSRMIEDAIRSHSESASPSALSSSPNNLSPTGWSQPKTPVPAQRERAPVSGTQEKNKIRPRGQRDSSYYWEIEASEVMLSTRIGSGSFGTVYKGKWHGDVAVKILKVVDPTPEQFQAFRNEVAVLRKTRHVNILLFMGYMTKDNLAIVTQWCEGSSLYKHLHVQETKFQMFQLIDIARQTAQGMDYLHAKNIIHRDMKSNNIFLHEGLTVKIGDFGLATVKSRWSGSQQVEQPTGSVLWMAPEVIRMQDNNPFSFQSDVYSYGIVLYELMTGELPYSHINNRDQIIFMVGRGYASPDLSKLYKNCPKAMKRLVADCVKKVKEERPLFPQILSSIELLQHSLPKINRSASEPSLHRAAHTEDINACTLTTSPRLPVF
T2 sequence (P15056 whole entry V600E): as the sequence (P15056 whole entry) above, with V600E counted along it

Row | Structure (SMILES) | IC50 ([1]; read-out: IC50 CRAF) [nM] | IC50 [2] [nM] | IC50 [3] [nM] | % Inhibition at 1 µM over V600EBRAF [3] [%] | inhibition at 1 µM [3] [%] | activity at 10 µM [4] [%] | percent inhibition ([4]; OVCAR-4, NCI-60 heat map analysis) [%] | activity at 10 µM [5] [%] | activity at 10 µM [6] [%] | activity at 10 µM [7] [%] | activity at 10 µM [8] [%] | percent inhibition [8] [%] | activity at 10 µM [9] [%] | activity at 10 µM [10] [%] | percent inhibition ([10]; NCI-H522, NCI-60 heat map analysis) | activity at 10 µM [11] [%] | percent inhibition ([11]; NCI-60 heat map analysis) | percent inhibition ([7]; HOP-92, NCI-60 heat map analysis) | IC50 ([1]; IC50 CRAF) [nM] | percent inhibition ([9]; MOLT-4, NCI-60 heat map analysis)
1 | O=S(=O)(NCCCNc1nccc(-n2cnc3ccccc32)n1)c1ccc(F)cc1 [12i, N-(3-((4-(1H-benzo [d]imidazol-1-yl)pyrimidin-2-yl)amino)propyl)-4-fluorobenzenesulfonamide] | 980 ± 44 | 1330 ± 81 | 530 ± 22 | 97.81 ± 0.82 | 98 | 44.2 | 56 | 93.8 | 69.3 | 87.9 | 2.63 | 97 | 33.2 | 68.5 | around 30% | 61.2 | around 30% |  |  | 
2 | O=S(=O)(NCCCNc1nccc(-n2cnc3ccccc32)n1)c1ccc(Cl)cc1 [12j, N-(3-((4-(1H-benzo [d]imidazol-1-yl)pyrimidin-2-yl)amino)propyl)-4-chloro benzenesulfonamide] | 1020 ± 77 | 1130 ± 99 | 790 ± 51 | 88.14 ± 0.19 | 88 | 83 |  | 100 | 92.5 | 94.6 | 76.2 |  | 82.3 | 82.8 |  | 91 |  |  |  | 
3 | O=S(=O)(NCCCNc1nccc(-n2cnc3ccccc32)n1)c1ccc(Br)cc1 [12k, N-(3-((4-(1H-benzo [d]imidazol-1-yl)pyrimidin-2-yl)amino)propyl)-4-bromo benzenesulfonamide] | 990 ± 85 | 1530 ± 110 | 810 ± 56 | 73.81 ± 0.75 | 74 | 72.1 |  | 96.6 | 84.7 | 79.3 | 53.5 | 40 | 64.9 | 75.5 |  | 81.5 |  |  |  | 
4 | O=S(=O)(NCCCNc1nccc(-n2cnc3ccccc32)n1)c1ccc(C(F)(F)F)cc1 [12l, N-(3-((4-(1H-benzo [d]imidazol-1-yl)pyrimidin-2-yl)amino)propyl)-4-(trifluoromethyl) benzenesulfonamide] | 840 ± 76 | 940 ± 65 | 490 ± 61 | 98.75 ± 0.58 | 99 | 53 |  | 73.2 | 59 | 56 | 29.9 | 70 | 38.4 | 66.9 |  | 58.1 |  | around 40% |  | 
5 | COc1ccc(S(=O)(=O)NCCCNc2nccc(-n3cnc4ccccc43)n2)cc1 [12m, N-(3-((4-(1H-benzo [d]imidazol-1-yl)pyrimidin-2-yl)amino)propyl)-4-methoxy benzenesulfonamide] | 960 ± 79 | 1460 ± 86 | 820 ± 48 | 51.26 ± 0.29 | 51 | 77.4 |  | 94.5 | 89.7 | 75.8 | 70.1 |  | 77 | 81.1 |  | 84.4 |  |  |  | 
6 | O=S(=O)(NCCCNc1nccc(-n2cnc3ccccc32)n1)c1cccc2ccccc12 [12n, N-(3-((4-(1H-benzo [d]imidazol-1-yl)pyrimidin-2-yl)amino)propyl)naphthalene-1-sulfonamide] |  | 3540 ± 175 | 1280 ± 144 | 41.27 ± 0.46 | 41 | 66.7 |  | 90.8 | 66.7 | 80.2 | 58.8 | 40 | 67 | 70 |  | 75.1 |  |  | 1780 ± 156 | around 30%
